Assay results: US6919299B2, “Synergistic herbicidal compositions” (Bayer CropScience GmbH, priority 2001, dated 2005)

Experiments:
Format in all cases: in vivo
Matricaria spec = assay: Outdoor post-emergence herbicidal trial, MATCH; settings: Example B.V, outdoors
Description: (§1) Outdoors, crop plants were grown on plots of a size of from 5 to 10 m^2 on various soils and under various climatic conditions, and the natural presence of harmful plants and/or their seeds in the soil was utilized for the experiments. The treatment with the compositions according to the invention or the herbicides A and B applied individually was carried out after emergence of the harmful and the crop plants, in general at the 2- to 4-leaf stage. The active compounds or active compound combinations, formulated as WG, WP or EC, were applied by the post-emergence method. After 2 to 8 weeks, visual evaluation was carried out in comparison with an untreated comparative group. […] In addition, the herbicidal activities of the compositions according to the invention exceed the expected values according to Colby.
(§2) If the observed activity values of the mixtures already exceed the formal sum of the values for the trials with individual applications, they also exceed the expected value according to Colby which is calculated using the following formula (cf. S. R. Colby; in Weeds 15 (1967) pp. 20 to 22): E=A+B−(A×B/100)
(§3) The figures denote: • A, B=Activity of components A and B in percent, at a dosage of a and b gram of ai/ha, respectively. • E=Expected value in % at a dosage of a+b gram of ai/ha.

Abutilon theophrasti = assay: Outdoor post-emergence herbicidal trial, ABUTH; settings: outdoors
Description: as §1, §2, §3

Digitaria sanguinalis = assay: Outdoor post-emergence herbicidal trial, DIGSA; settings: Example B.VII, outdoors
Description: as §1, §2, §3

Portulaca oleracea = assay: Outdoor post-emergence herbicidal trial, POROL; settings: Example B.VI, outdoors
Description: as §1, §2, §3

Papaver rhoeas = assay: Outdoor post-emergence herbicidal trial, PAPRH; settings: Example B.I, outdoors
Description: as §1, §2, §3

Brassica napus = assay: Outdoor post-emergence herbicidal trial, BRAPP; settings: Example B.II, outdoors
Description: as §1, §2, §3

Sorghum halepense = assay: Outdoor post-emergence herbicidal trial, SORHA; settings: Example B.VII, outdoors
Description: as §1, §2, §3

Setaria faberi = assay: Outdoor post-emergence herbicidal trial, SETFA; settings: Example B.II, outdoors
Description: as §1, §2, §3

Echinocloa crus galli = assay: Outdoor post-emergence herbicidal trial, ECHCG; settings: outdoors
Description: as §1, §2, §3

Polygonum convolvulus = assay: Outdoor post-emergence herbicidal trial, POLCO; settings: Example B.V, outdoors
Description: as §1, §2, §3

Galium aparine = assay: Outdoor post-emergence herbicidal trial, GALAP; settings: Example B.I, outdoors
Description: as §1, §2, §3

Amaranthus retroflexus = assay: Outdoor post-emergence herbicidal trial, AMARE; settings: Example B.VI, outdoors
Description: as §1, §2, §3

[1] = Example B.III, B2.2 840 g ai/ha

For `CS(=O)(=O)c1ccc(C(=O)C2C(=O)CCCC2=O)c(Cl)c1COCC(F)(F)F` [Component A, 2-[2-chloro-3-(2,2,2-trifluoroethoxymethyl)-4-methylsulfonylbenzoyl]cyclohexane-1,3-dione], the “found (herbicidal activity)” value (Matricaria spec; A 38 g ai/ha) was 45%, the “found (herbicidal activity)” value (Abutilon theophrasti; Example B.III, A 100 g ai/ha) was 75% and the “found (herbicidal activity)” value (Abutilon theophrasti; Example B.IV, A 100 g ai/ha) was 75%. The “found (herbicidal activity)” value (Digitaria sanguinalis; A 75 g ai/ha) was 46%, the “found (herbicidal activity)” value (Portulaca oleracea; A 75 g ai/ha) was 50% and the “found (herbicidal activity)” value (Papaver rhoeas; A 75 g ai/ha) was 0%. The “found (herbicidal activity)” value (Brassica napus; A 100 g ai/ha) was 68%, the “found (herbicidal activity)” value (Sorghum halepense; A 75 g ai/ha) was 50% and the “found (herbicidal activity)” value (Setaria faberi; A 100 g ai/ha) was 65%. For the same compound, the “found (herbicidal activity)” value (Echinocloa crus galli; Example B.III, A 100 g ai/ha) was 98%, the “found (herbicidal activity)” value (Echinocloa crus galli; Example B.IV, A 100 g ai/ha) was 98% and the “found (herbicidal activity)” value (Polygonum convolvulus; A 38 g ai/ha) was 50%. For the same compound, the “found (herbicidal activity)” value (Galium aparine; A 75 g ai/ha) was 50% and the “found (herbicidal activity)” value (Amaranthus retroflexus; A 75 g ai/ha) was 90%.

With `N#Cc1cc(Br)c(O)c(Br)c1` [Component B2.3, bromoxynil] the “found (herbicidal activity)” value (Matricaria spec; B2.3 100 g ai/ha) was 55% and the “found (herbicidal activity)” value (Polygonum convolvulus; B2.3 100 g ai/ha) was 45%.

In the case of `COc1cc(OC)nc(NC(=O)NS(=O)(=O)c2ncccc2C(=O)N(C)C)n1` [Component B1.9, nicosulfuron], the “found (herbicidal activity)” value (Digitaria sanguinalis; B1.9 40 g ai/ha) is reported as 50%, the “found (herbicidal activity)” value (Portulaca oleracea; B1.9 40 g ai/ha) is reported as 0% and the “found (herbicidal activity)” value (Sorghum halepense; B1.9 40 g ai/ha) is reported as 62%. For the same compound, the “found (herbicidal activity)” value (Amaranthus retroflexus; B1.9 40 g ai/ha) was 90%.

In the case of `CCNc1nc(Cl)nc(NC(C)C)n1` [Component B2.2, atrazine], the “found (herbicidal activity)” value (Abutilon theophrasti; [1]) is reported as 20%, the “found (herbicidal activity)” value (Abutilon theophrasti; Example B.IV, B2.2 840 g ai/ha) is reported as 20% and the “found (herbicidal activity)” value (Papaver rhoeas; B2.2 200 g ai/ha) is reported as 60%. For the same compound, the “found (herbicidal activity)” value (Brassica napus; B2.2 840 g ai/ha) was 0%, the “found (herbicidal activity)” value (Setaria faberi; B2.2 840 g ai/ha) was 5% and the “found (herbicidal activity)” value (Echinocloa crus galli; [1]) was 0%. The “found (herbicidal activity)” value (Echinocloa crus galli; Example B.IV, B2.2 840 g ai/ha) was 0% and the “found (herbicidal activity)” value (Galium aparine; B2.2 200 g ai/ha) was 30%.
